{"source": "patent US12265087B2", "about": "“Olfactory receptor as microglia marker and use thereof” (DAEGU GYEONGBUK INSTITUTE OF SCIENCE AND TECHNOLOGY, priority 2019, dated 2025)", "key": {"[1]": {"assay": "Disease behavior: mouse mobility after IP injection", "type": "in vivo", "conditions": "2-PF injection (IP), three concentrations", "experimental": "It is known that an increase in disease behavior by microglial activation is due to an increase in secreted cytokines. To confirm the increase in disease behavior with the increase in cytokines, this experiment was conducted. The evaluation of disease behavior was accomplished after IP injection of Sup or 2-PF into the mice.\nAfter IP injection, a mouse was placed in a space with four open sides (40×40×40 cm, white field, black wall), and the location of the mouse was recorded with a camera for 30 minutes, and then a moving distance thereof was calculated. Afterward, the data was plotted in a pseudo-color heat map using EthoVision XT (Noldus, Netherlands)."}, "primary microglia [2]": {"system": "primary microglia", "assay": "Western blotting of phosphorylated signaling proteins in primary microglia", "type": "cell-based, mouse", "conditions": "0-30 min after treatment", "experimental": "Cells and tissue were prepared using the T-PER® reagent (#78510; Thermo Fisher Scientific) containing protease inhibitors (#04-693-116-001; Roche Molecular Diagnostics) and DMSF (Sigma-Aldrich), and then lysed using a MagNA lyser (Roche Molecular Diagnostics). A total protein extract was quantified by the Bradford assay. The samples were dissolved in 7.5% SDS-PAGE or 4-20% gradient mini-PROTEIN TGX Precast Gels (#456-1064; Bio-Rad Laboratories), and then blotted on nitrocellulose membranes (#10600002; GE Healthcare). Afterward, the membranes were blocked for 1 hour in 5% non-fat dry milk and TBST, 0.1% TWEEN® 20 (#P9416; Sigma-Aldrich), and Tris-buffered saline, and then incubated with primary antibodies at 4° C. overnight. The antibodies were as follows: Olfr110 (36 kDa; 1:1,000; #ab177327; Abcam), anti-rhodopsin (39 kDa; 1:1,000; #MABN15; Millipore), CREB (43 kDa; 1:1,000; #9197; Cell Signaling Technology), phospho-CREB (43 kDa; 1:1,000; #9198; Cell Signaling Technology), ERK (44 kDa; 1:1,000; #sc094; Santa Cruz), phospho-ERK (42, 44 kDa; 1:1,000; #sc-7383; Santa Cruz), phospho-Akt (60 kDa; 1:500; sc-293125; Santa Cruz), phospho-JNK (46, 54 kDa; 1:500; sc-6254; Santa Cruz), phosphor-p38 (38 kDa; 1:1,000; sc-7973; Santa Cruz), and beta-Actin (45 kDa; 1:10,000; #4967; Cell Signaling Technology). In addition, as isotype-matched horseradish peroxidase-conjugated secondary antibodies, anti-rabbit IgG (#711-035-152; Jackson ImmunoResearch) diluted 1:100,000, and anti-mouse IgG (#715-035-150; Jackson ImmunoResearch) diluted 1:40,000 in TBST were used at room temperature for 2 hours. Immunoreactive protein bands were obtained using SuperSignal™ West Pico Chemiluminescent Substrate (#34080; Thermo Fisher Scientific)."}, "primary microglia [3]": {"system": "primary microglia", "assay": "cAMP ELISA in primary microglia", "type": "cell-based, mouse", "conditions": "2-PF 0, 100, 500 μM", "experimental": "Primary microglia were seeded in 48-well plates (2×10^5 cells/well) and treated with 30 μM forskolin (#F3917, Sigma Aldrich) or 2-PF (10, 100, 500 μM) for 30 minutes. To confirm the effect of an inhibitor, 1 mM of S Q22536 (#17318-31-9; Calbiochem) was pretreated first for 30 minutes. The cells were lysed in 0.1 M of HCl with 1% Triton X 100 for 10 minutes, the lysate was centrifuged at 600×g for 2 minutes. The resulting supernatant was directly used for cAMP analysis with a cAMP ELISA kit (Enzo Life Science) according to the manufacturer's protocol. An optical density at 405 nm was measured using a VersaMax microplate reader (Molecular Devices)."}, "[4]": {"system": "Hana3A cells expressing Olfr111", "assay": "Boyden chamber chemotaxis assay, Hana3A cells expressing Olfr111", "type": "cell-based", "conditions": "2-PF 10, 100 and 1000 μM", "experimental": "Chemotaxis was measured using a multi-well Boyden chamber. More specifically, a polycarbonate filter (8 μm pore; #101-8; Neuroprobe) was coated with […] fibronectin (Sigma-Aldrich) in PBS for 2 hours, and the coated filter was installed in a Boyden chamber. In addition, the bottom side of a plate was filled with serum-free DMEM containing 2-PF or a culture supernatant. Subsequently, microglia or Hana3A cells were transfected with an OR construct, and then suspended in serum-free DMEM. The microglia were kept at 37° C. for 4 hours, and the Hana3A cells for 8 hours. Cells that migrated to the bottom surface were fixed with 4% PFA, and stained with hematoxylin for 10 minutes. The migrated cells were counted under a light microscope in five randomly selected fixed […] fields (200×) using a scored eyepiece. A chemotaxis index was defined as the migrated cell number normalized against the untreated group."}, "cerebral cortex": {"system": "cerebral cortex", "assay": "Cytokine mRNA in the cerebral cortex after IP injection (qRT-PCR)", "type": "in vivo, mouse", "conditions": "2-PF injection", "excerpt": "To measure mRNA, RNA was isolated from red blood cells, microglia, astrocytes, Hana3A cells or cerebral cortex cells using a MagNa lyser (Roche Molecular Diagnostics) with TRIzol reagent (Invitrogen, Carlsbad, Calif.) according to the manufacturer's protocols. Afterward, cDNA was synthesized through reverse transcription using isolated mRNA (using PrimeScript™ 1st str and cDNA Synthesis kit-#6110; Takara Bio Inc.). This process was quantitatively measured in real time through quantitative real-time-PCR (using a LightCycler® 480 SYBR Green I Master). The measurement values were calculated using a 2-ΔΔCt method."}, "microglia": {"system": "microglia", "assay": "Fura-2/AM calcium imaging of microglia", "type": "cell-based, mouse", "conditions": "2-PF 100, 300, 1000 μM", "experimental": "Twenty-four hours after newly isolated microglia were mounted on poly-D-lysine-coated 18-mm aperture microscope cover glasses (#0111580; Marienfeld), the microglia were incubated in a superfusion chamber for 30 minutes. The chamber contained 4 μM of Fura-2/AM (Ca^2+-sensitive fluorescent dye; #F1221; Thermo Fisher Scientific) in Ringer's solution (115 mM NaCl, 2.5 mM KCl, 1 mM CaCl2, 1.5 mM MgCl2, 4.5 mM HEPES, pH 7.4) filtered through a filter with a 0.22-μm pore. After calcium staining culture, the chamber was placed under an inverted microscope and washed with Ringer's solution for 20 minutes prior to […] treatment. Here, a flow rate of the solution is 12 ml/min. Subsequently, primary microglia were treated with 300 μM ATP (#A2383; Sigma Aldrich) for 5 seconds. After washing for 5 minutes, the primary microglia were treated with a 100 μM 2-PF solution for 5 seconds. This step was accomplished with two different concentrations (300 and 1000 μM) of 2-PF solution. Finally, the microglia were treated with a 300 μM ATP solution for 5 seconds. An emitted fluorescent material was photographed every 2 seconds using a CCD camera. Pseudo-color images were converted using fractional fluorescence changes (ΔF/F, Δ[Ca^2+]i). In addition, these images show changes in intracellular calcium ions. […]"}}}
{"compound": "CCCCCc1ccco1", "note": "[2-PF, 2-pentylfuran]", "values": [{"measurement": "mouse mobility", "setting": "[1]", "value": "concentration-dependent decrease"}, {"measurement": "phosphorylation levels of ERK, p38, JNK and Akt", "setting": "primary microglia [2]", "value": "increased from 2 minutes and stopped increasing at 20 minutes"}, {"measurement": "cAMP concentration", "setting": "primary microglia [3]", "value": "increased by 2-PF treatment in a concentration dependent manner"}, {"measurement": "mobility of Olfr111 cells (chemotaxis assay)", "setting": "[4]", "value": "increased in mobility in a concentration-dependent manner"}, {"measurement": "expression level of inflammatory cytokines (Tnf, Il6, Il1b, Il10)", "setting": "cerebral cortex", "value": "significantly increased"}, {"measurement": "intracellular calcium ion levels", "setting": "microglia", "value": "increased according to an injection amount"}]}
